Data as given in PubChem BioAssay (NCI).
“And” between values parts separate entries of the source, which are not always exact repeats. Equal values may be shown once.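 Test compounds were applied to cells in 96-well plates for 48 hours at 5 doses. GI50 = concentration required for 50% inhibition of growth. At the TGI there is no net growth.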

Key:
Test in all cases: NCI anticancer screen, dose series, 48 h
[1] = system: DLD-1 colon
[2] = system: HOP-18 NSCLC
[3] = system: M19-MEL melanoma
[4] = system: LXFL 529 NSCLC
[5] = system: MDA-N
[6] = system: RXF-631 renal
[7] = system: XF 498 CNS

Row | Structure (SMILES) | TGI [1] | TGI [2] [µM] | TGI [3] | TGI [4] [µM] | TGI [5] [µM] | TGI [6] [µM] | TGI [7] [µM] | GI50 [1] [µM] | GI50 [3] [µM]
1 | CC1(C)COC2C(N(Cc3ccccc3)Cc3ccccc3)C(=O)N21 (stereo not given) | > 100 µM | > 100 | > 100 µM | > 100 | – | – | – | – | –
2 | CCCc1nc(Cl)nc(Cl)c1Cl | – | – | – | – | 0.398 | – | – | – | –
3 | COc1ccc(O)c(C(=O)CCC(=O)O)c1 | > 100 µM | – | > 100 µM | > 100 | – | > 100 | > 100 | – | –
4 | CCC1=CCN(c2cc(C)ccn2)OC1c1ccccc1 (stereo not given) | > 100 µM | > 100 | > 100 µM | > 100 | – | 73.1 | 71.2 | – | –
5 | COc1cc2c(c3c1c(=O)c1ccccc1n3C)C=CC(C)(C)O2 | > 100 µM | > 100 | > 100 µM | > 100 | – | – | – | – | –
6 | COC/N=C(\NC#N)NCOC | > 100 µM | > 100 | > 100 µM | > 100 | – | > 100 | > 100 | – | –
7 | C=CC(C)(C)n1cc(C2=C(O)C(=O)C(c3cn(C(C)(C)C=C)c4ccccc34)=C(O)C2=O)c2ccccc21 | – | – | – | – | 4.98 | – | – | – | –
8 | CO[C@H]1/C=C/O[C@@]2(C)Oc3c(C)c(O)c4c(O)c(c(/C=N/N5CCN(C)CC5)c(O)c4c3C2=O)NC(=O)/C(C)=C\C=C\[C@H](C)[C@H](O)[C@@H](C)[C@@H](O)[C@@H](C)[C@H](OC(C)=O)[C@@H]1C | – | – | – | – | > 100 | – | – | – | –
9 | O=c1cc(-c2ccccc2)[nH]c2cc(F)cc(F)c12 | > 100 µM | > 100 | > 100 µM | > 100 | – | – | – | – | –
10 | CN/N=C(/c1nc2ccc([N+](=O)[O-])cc2[nH]c1=O)C(O)c1ccc(C(O)/C(=N\NC)c2nc3ccc([N+](=O)[O-])cc3[nH]c2=O)cc1 (stereo not given) | > 100 µM | – | > 100 µM | > 100 | – | > 100 | – | – | –
11 | O=C1CCC2(c3ccccc3)Nc3ccccc3N12 (stereo not given) | > 100 µM | – | > 100 µM | > 100 | – | > 100 | > 100 | – | –
12 | CC1=Nc2ccccc2SC(c2c(Cl)cccc2Cl)C1 (stereo not given) | 1.42 µM | 11.1 | 2.44 µM | 1.69 | – | – | 3.21 | – | –
13 | Clc1ccccc1CN1COc2c(ccc3cccnc23)C1 | 17.5 µM | – | 15.1 µM | – | – | – | 22.4 | – | –
14 | CC(=O)c1ccc(NC(=O)C(=O)C(C(=O)/C=C/c2ccccc2)C2OC(=O)c3ccccc32)cc1 (stereo not given) | > 100 µM | > 100 | > 100 µM | > 100 | – | > 100 | > 100 | – | –
15 | CC(=O)c1cccc(NC(=O)C(=O)c2c(O)c3ccccc3oc2=O)c1 | – | – | – | – | > 100 | – | – | – | –
16 | CC1(C)OC(=S)N(c2ccccc2)C12C=Cc1cc3ccccc3nc1S2 (stereo not given) | 97 µM | – | > 100 µM | > 100 | – | – | > 100 | – | –
17 | CSc1ncnc2c1ncn2CC(=O)C1CCC2C3CCC4=CC(=O)CCC4(C)C3CCC12C (stereo not given) | – | – | – | – | 12.4 | – | – | – | –
18 | CCOc1cccc2c1N[S@@](=O)S2 | > 100 µM | – | > 100 µM | > 100 | – | > 100 | > 100 | – | –
19 | N=c1c2ccccc2sc2nc3ccccc3n12 | > 100 µM | > 100 | > 100 µM | > 100 | – | – | > 100 | – | –
20 | CC(/C=C/C(O)=C1/C(=O)CNC1=O)=C\[C@@H](C)[C@H]1O[C@@]2(C)O[C@H](C(=O)[C@@H]3O[C@@]32C)[C@@H]1C | – | – | – | – | > 100 | – | – | – | –

Row | Structure (SMILES) | TGI [1] | TGI [2] [µM] | TGI [3] | TGI [4] [µM] | TGI [5] [µM] | TGI [6] [µM] | TGI [7] [µM] | GI50 [1] [µM] | GI50 [3] [µM]
21 | CC(=O)NC1(NC(C)=O)C2CC(C1Cc1ccccc1)C(C)(C)C2C (stereo not given) | – | – | – | – | > 100 | – | – | – | –
22 | CN(C)c1ccc(/C=C(\NC(=O)c2ccccc2)c2nc3ccc4c(c3[nH]2)C(=O)c2ccccc2C4=O)cc1 | 55.7 µM | – | > 100 µM | > 100 | – | > 100 | – | – | –
23 | COc1ccc(/C=C2\CCC(CCN(C)C)(C3=CCCC3)C2=O)cc1 (stereo not given) | 79.2 µM | 66.5 | 28.4 µM | 30.4 | – | – | – | – | –
24 | COc1ccc(/C=C(\NC(=O)c2ccccc2)c2nc3ccccc3[nH]2)cc1OC | > 100 µM | > 100 | > 100 µM | > 100 | – | > 100 | > 100 | – | –
25 | CCOC(=O)C1Cc2ccc3c4c(ccc(c24)C1)CC(C(=O)OCC)C3 | > 100 µM | > 100 | > 100 µM | – | – | – | > 100 | – | –
26 | COC(=O)C(=O)C(CC(=O)Nc1ccc(C)cc1)C(=O)OC (stereo not given) | > 100 µM | > 100 | > 100 µM | > 100 | – | > 100 | > 100 | – | –
27 | COc1ccc(/C=C2/C(=O)N(C(=O)c3ccccc3O)N=C2C)cc1 | > 100 µM | – | > 100 µM | > 100 | > 100 | – | > 100 | – | –
28 | C#CCN(N=O)C(=O)ON1C(=O)CCC1=O | > 100 µM | > 100 | > 100 µM | > 100 | – | – | – | – | –
29 | COc1cc(C(=O)N[C@H]2CCc3cc(OC)c(OC)c(OC)c3-c3ccc(SC)c(=O)cc32)cc(OC)c1OC | 25 µM and > 100 µM | – | 25 µM and > 100 µM | – | – | > 100 | – | 0.0234 | 0.0156
30 | COC(=O)c1cc(=O)nc2cc3cccccc3n12 | > 100 µM | > 100 | > 100 µM | > 100 | – | – | > 100 | – | –
31 | C1=Cc2nc1c(-c1ccccc1)c1ccc([nH]1)c(-c1ccccc1)c1nc(c(-c3ccccc3)c3ccc([nH]3)c2-c2ccccc2)C=C1 | > 100 µM | > 100 | > 100 µM | > 100 | – | > 100 | – | – | –
32 | COC(=O)C(C(=O)C(=O)Nc1ccc(C)cc1C)c1csc(-n2nc(-c3ccccc3)cc2-c2ccccc2)n1 (stereo not given) | > 100 µM | > 100 | > 100 µM | > 100 | – | > 100 | > 100 | – | –
33 | C=C1C(=O)C23[C@H](O)C1CC[C@H]2[C@]12COC3(O)[C@@H](O)[C@@H]1C(C)(C)CC[C@@H]2O | 25.1 µM | 24.6 | 26.3 µM | 2.56 | – | 22.7 | 9.82 | – | –
34 | COc1ccccc1-c1cc(=O)c2cc(C)c(C)c(C(=O)O)c2o1 | > 100 µM | – | > 100 µM | > 100 | – | – | > 100 | – | –
35 | OC1=CN=COc2ccccc21 | > 100 µM | – | > 100 µM | > 100 | – | > 100 | – | – | –
36 | CCCCCCC(O)CC[C@H]1CCC[C@@H](C)N1 (stereo not given in full) | > 100 µM | > 100 | > 31.6 µM | > 100 | – | – | – | – | –
37 | C[N+](C)(C)CC1CCCCC1=O (stereo not given) | 39.2 µM | 30.4 | 35.2 µM | – | – | – | – | – | –
38 | O=c1c2c(-c3ccccc3)c3ccccc3nc2cnn1-c1ccccc1 | – | > 100 | > 100 µM | > 100 | – | – | – | – | –
39 | CCOc1ccc(N=C(NC(=O)c2ccccc2)SC)cc1 | > 100 µM | > 100 | > 100 µM | > 100 | – | – | – | – | –
